Reference: US8058447B2, “4-Chromenonyl-1,4-dihydropyridinecarbonitriles and the use thereof” (Bayer Pharma Aktiengesellschaft, priority 2005, dated 2011)

These compounds were tested against T1, human mineralocorticoid receptor (MR) (Homo sapiens, UniProt P08235) (assay: Cellular in vitro assay to determine the inhibitory MR activity (GAL4-MR chimera luciferase reporter in CHO K1 cells)). Conditions: antagonism of aldosterone-stimulated luciferase in CHO K1 cells expressing GAL4-MR chimera.
T1 construct: expressed in transfected cells
T1 sequence (P08235 734-984 limits assumed): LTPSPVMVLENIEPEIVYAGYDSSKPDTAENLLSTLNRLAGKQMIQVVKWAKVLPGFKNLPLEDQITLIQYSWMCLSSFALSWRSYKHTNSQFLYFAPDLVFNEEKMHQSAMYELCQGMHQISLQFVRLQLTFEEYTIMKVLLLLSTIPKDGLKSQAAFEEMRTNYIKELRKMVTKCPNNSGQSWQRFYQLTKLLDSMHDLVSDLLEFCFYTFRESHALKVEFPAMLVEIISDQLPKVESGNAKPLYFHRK
Format: cell-based
Description: 1. Cellular In Vitro Assay to Determine the Inhibitory MR Activity and MR Selectivity Compared with Other Steroid Hormone Receptors
Antagonists of the human mineralocorticoid receptor (MR) are identified, and the activity of the compounds described herein is quantified with the aid of a recombinant cell line. The cell is originally derived from a hamster ovary epithelial cell (Chinese Hamster Ovary, CHO K1, ATCC: American Type Culture Collection, VA 20108, USA).
An established chimera system in which the ligand-binding domains of human steroid hormone receptors are fused to the DNA binding domain of the yeast transcription factor GAL4 is used in this CHO K1 cell line. The GAL4-steroid hormone receptor chimeras produced in this way are cotransfected and stably expressed with a reporter construct in the CHO cells.
To generate the GAL4-steroid hormone receptor chimeras, the GAL4 DNA binding domain (amino acids 1-147) from the vector pFC2-dbd (from Stratagene) is cloned with the PCR-amplified ligand-binding domains of the mineralocorticoid receptor (MR, amino acids 734-985), of the glucocorticoid receptor (GR, amino acids 443-777), of the progesterone receptor (PR, amino acids 680-933) and of the androgen receptor (AR, amino acids 667-919) into the vector pIRES2 (from Clontech). The reporter construct, which comprises five copies of the GAL4 binding site upstream of a thymidine kinase promoter, leads to expression of firefly luciferase (Photinus pyralis) after activation and binding of the GAL4-steroid hormone receptor chimeras by the respective specific agonists aldosterone (MR), dexamethasone (GR), progesterone (PR) and dihydrotestosterone (AR).
The MR, GR, PR and AR cells are plated out in medium (Optimem, 2.5% FCS, 2 mM glutamine, 10 mM HEPES) in 96- (or 384- or 1536-) well microtiter plates on the day before the assay and are kept in a cell incubator (96% humidity, 5% v/v CO2, 37° C.). On the day of the assay, the substances to be tested are taken up in the abovementioned medium and added to the cells. About 10 to 30 minutes after addition of the test substances, the respective specific agonists of the steroid hormone receptors are added. After a further incubation time of 5 to 6 hours, the luciferase activity is measured with the aid of a video camera. The measured relative light units as a function of the substance concentration result in a sigmoidal stimulation curve. The IC50 values are calculated with the aid of the GraphPad PRISM computer program (Version 3.02).
`CC1=C(C#N)C(c2ccc([N+](=O)[O-])c3c(=O)cc(C)oc23)C(C(=O)OC(C)C)=C(C)N1` (centres unmarked) [Example 32, Isopropyl 5-cyano-2,6-dimethyl-4-(2-methyl-5-nitro-4-oxo-4H-chromen-8-yl)-1,4-dihydropyridine-3-carboxylate] showed an IC50 of 105 nM. In the case of `CC1=C(C#N)C(c2ccc(F)c3c(=O)cc(C)oc23)C(C(=O)CCC(C)C)=C(C)N1` (centres unmarked) [Example 14, 4-(5-Fluoro-2-methyl-4-oxo-4H-chromen-8-yl)-2,6-dimethyl-5-(4-methylpentanoyl)-1,4-dihydropyridine-3-carbonitrile], the IC50 is reported as 195 nM. Compound `CC1=C(C#N)[C@@H](c2cc(F)c(F)c3c(=O)cc(C)oc23)C(C(=O)OC2CCC2)=C(C)N1` (single isomer, unassigned) [Example 18] has an IC50 of 22 nM. Work on `CC1=C(C#N)C(c2ccc(F)c3c(=O)cc(C)oc23)C(C(=O)CCC2CCC2)=C(C)N1` (centres unmarked) [Example 15, 5-(3-Cyclobutylpropanoyl)-4-(5-fluoro-2-methyl-4-oxo-4H-chromen-8-yl)-2,6-dimethyl-1,4-dihydropyridine-3-carbonitrile] yielded an IC50 of 93 nM. For `CC1=C(C#N)C(c2ccc(F)c3c(=O)cc(C)oc23)C(C(=O)CC2CCC2)=C(C)N1` (centres unmarked) [Example 13, 5-(Cyclobutylacetyl)-4-(5-fluoro-2-methyl-4-oxo-4H-chromen-8-yl)-2,6-dimethyl-1,4-dihydropyridine-3-carbonitrile], the IC50 was 127 nM. With `CC1=C(C#N)C(c2cccc3c(=O)cc(C)oc23)C(C(=O)CC2CCCC2)=C(C)N1` (centres unmarked) [Example 41, 5-(Cyclopentylacetyl)-2,6-dimethyl-4-(2-methyl-4-oxo-4H-chromen-8-yl)-1,4-dihydropyridine-3-carbonitrile] the IC50 was 290 nM. `CCOC(=O)C1=C(C)NC(C(F)(F)F)=C(C#N)C1c1cccc2c(=O)cc(C)oc12` (racemic) [Example 29, Ethyl 5-cyano-2-methyl-4-(2-methyl-4-oxo-4H-chromen-8-yl)-6-(trifluoromethyl)-1,4-dihydropyridine-3-carboxylate] showed an IC50 of 193 nM. For `CCOC(=O)C1=C(C)NC(C(F)(F)F)=C(C#N)[C@H]1c1cccc2c(=O)cc(C)oc12` (single isomer, unassigned) [Example 30], the IC50 was 89 nM.
